Assay results taken from patent US20250099491A1, “PREVENTION OR TREATMENT OF CARDIOVASCULAR DISEASES WITH HIGH PENETRATION PRODRUGS OF ASPIRIN AND OTHER NSAIDS” (Techfields Inc., priority 2022, published 2025).

System: patients with ischemic strokes
Test: Phase 2 clinical study of spray in patients with ischemic strokes
Type: in vivo, human
Details: for RICA (near-wall): Maximal IMT of right internal carotid artery / LCCA (far-wall): Maximal IMT of left common carotid artery / LCCA (near-wall): Maximal IMT of left common carotid artery / LICA (far-wall): Maximal IMT of left internal carotid artery / LICA (near-wall): Maximal IMT of left internal carotid artery / RCCA (far-wall): Maximal IMT of right common carotid artery / RCCA (near-wall): Maximal IMT of right common carotid artery / RICA (far-wall): Maximal IMT of right internal carotid artery: ultrasonography
Description: Each patient enrolled in Group A was administered the investigational drug in a double-blind manner for 16 weeks starting between 3 and 60 days after the onset of stroke symptoms (Day 1 of the study). The patients and/or their caregivers were instructed how to apply the investigational drug accurately so that patients or their caregivers would administer 20 sprays/dose of either the investigational drug or placebo twice daily (approximately every 12 hours) for a total daily dose of 280 mg of investigational drug. The 20 sprays of investigational drug were administered as follows: 4 sprays around the neck, 2 sprays to the left shoulder, 2 sprays to the right shoulder, 6 sprays to the chest, 3 sprays to the left leg, and 3 sprays to the right leg. Each spray was sprayed on a different area of the skin to reach maximum absorption. The patient would wait for at least 5 minutes to dress after the last spray so that the skin became completely dry.
Patients were asked to return to the study site at Weeks 4, 8, 12, and 16 for efficacy and safety assessments. After the Week 16 assessments had been performed, patients would start the open-label period of the study the next day and receive active treatment in an open-label manner through the end of the study (EOS) at Week 32. That is, patients who were receiving active treatment would continue to receive active treatment, and patients who were receiving placebo would switch to active treatment for the remaining 16 weeks of the study. Patients would receive only 1 dose of investigational drug on the Week 16 visit day. Patients would return to the study site at Week 24 and Week 32 (EOS) for efficacy and safety assessments. An Early Termination visit would occur if the patient was discontinued from the study prematurely. Patients would have a follow-up visit approximately 14 days after the Early Termination visit or the Week 32 (EOS) visit.
The spray bottle deposits […] of spray solution and 7 mg 2-(diethylamino)ethyl acetoxybenzoate free base per spray on the skin. Subjects were to apply each spray to a different skin area around the neck, chest, legs and arms based on the randomized dose level assigned.
The treatment was administered twice daily (approximately every 12 hours) starting on Day 1 of the study through the Week 16 visit. Each spray was sprayed on a different area of the skin to reach maximum absorption.
Group A administered the 20 sprays of investigational drug as follows: 4 sprays around the neck, 2 sprays to the left shoulder, 2 sprays to the right shoulder, 6 sprays to the chest, 3 sprays to the left leg, and 3 sprays to the right leg twice daily for a total of 40 sprays (280 mg)/day. Each spray was sprayed on a different area of the skin to reach maximum absorption.
(§1) Group B administered the investigational drug as follows: 2 sprays to the front of the neck, 1 spray to the left side of the neck, 1 spray to the right side of the neck, 6 sprays to the chest close to the neck twice daily for a total of 20 sprays (140 mg)/day. Each spray was sprayed on a different area of the skin to reach maximum absorption.
as §1, with “C” for “B”, “1 spray” for “2 sprays”, “2” for “6”, “chest” for “chest close to the neck”, “10” for “20”, “(70 mg/day).” for “(140 mg)/day.”
The primary efficacy endpoint is the mRS score at Week 16 dichotomized as ‘success’ (0 to 2) or failure (>2) for all randomized patients at Week 16.
The mRS score was assessed at screening; Day 1 (baseline); Weeks 4, 8, 12, 16, 24, and 32; Early Termination Visit (if applicable) and Follow-Up Visit.
The mRS score measures the patient's functional level of activity and is dichotomized as a favorable outcome (score=0-2) versus unfavorable (score […]). […]

[1] = 10 Sprays (70 mg/dose bid), Week 24
[2] = 10 Sprays (70 mg/dose bid), Week 32
[3] = 10 Sprays (70 mg/dose bid), baseline
[4] = 20 Sprays (140 mg/dose bid), Baseline
[5] = 20 Sprays (140 mg/dose bid), Week 4
[6] = 20 Sprays (140 mg/dose bid), Week 8
[7] = 20 Sprays (140 mg/dose bid), Week 16
[8] = 20 Sprays (140 mg/dose bid), Week 24
[9] = 20 Sprays (140 mg/dose bid), Week 32
[10] = 20 Sprays (140 mg/dose bid), baseline
[11] = during the study, all three doses

CCN(CC)CCOC(=O)c1ccccc1OC(C)=O.Cl [Compound-1]
RICA (near-wall): Maximal IMT of right internal carotid artery (10 Sprays (70 mg/dose bid), Week 16): 0.9 ± 0.5 mm | Modified Rankin Scale Score (mRS) [1]: 1.5 ± 0.5 | National Institute of Health Stroke Scale [1]: 1.6 ± 0.6 | Modified Rankin Scale Score (mRS) [2]: 1.4 ± 0.5 | National Institute of Health Stroke Scale [2]: 1.3 ± 0.4 | LCCA (far-wall): Maximal IMT of left common carotid artery [2]: 1.7 ± 0.8 mm | LCCA (near-wall): Maximal IMT of left common carotid artery [2]: 1.2 ± 0.6 mm | LICA (far-wall): Maximal IMT of left internal carotid artery [2]: 0.6 ± 0.3 mm | LICA (near-wall): Maximal IMT of left internal carotid artery [2]: 0.7 ± 0.4 mm | RCCA (far-wall): Maximal IMT of right common carotid artery [2]: 1.3 ± 0.8 mm | RCCA (near-wall): Maximal IMT of right common carotid artery [2]: 1.3 ± 0.7 mm | RICA (far-wall): Maximal IMT of right internal carotid artery [2]: 0.8 ± 0.2 mm | RICA (near-wall): Maximal IMT of right internal carotid artery [2]: 0.7 ± 0.4 mm | Modified Rankin Scale Score (mRS) [3]: 3.5 ± 0.5 | National Institute of Health Stroke Scale [3]: 5.9 ± 2.0 | LCCA (far-wall): Maximal IMT of left common carotid artery [4]: 6.5 ± 2.0 mm | LCCA (near-wall): Maximal IMT of left common carotid artery [4]: 7.6 ± 1.6 mm | LICA (far-wall): Maximal IMT of left internal carotid artery [4]: 5.7 ± 1.7 mm | LICA (near-wall): Maximal IMT of left internal carotid artery [4]: 5.6 ± 1.7 mm | RCCA (far-wall): Maximal IMT of right common carotid artery [4]: 8.8 ± 2.3 mm | RCCA (near-wall): Maximal IMT of right common carotid artery [4]: 7.5 ± 1.8 mm | RICA (far-wall): Maximal IMT of right internal carotid artery [4]: 4.7 ± 1.6 mm | RICA (near-wall): Maximal IMT of right internal carotid artery [4]: 4.9 ± 1.3 mm | Modified Rankin Scale Score (mRS) [5]: 2.1 ± 0.5 | National Institute of Health Stroke Scale [5]: 4.6 ± 1.6 | Modified Rankin Scale Score (mRS) [6]: 1.8 ± 0.4 | National Institute of Health Stroke Scale [6]: 3.0 ± 1.1 | Modified Rankin Scale Score (mRS) [7]: 1.4 ± 0.5 | National Institute of Health Stroke Scale [7]: 1.9 ± 0.9 | LCCA (far-wall): Maximal IMT of left common carotid artery [7]: 1.2 ± 0.6 mm | LCCA (near-wall): Maximal IMT of left common carotid artery [7]: 1.3 ± 0.5 mm | LICA (far-wall): Maximal IMT of left internal carotid artery [7]: 0.6 ± 0.4 mm | LICA (near-wall): Maximal IMT of left internal carotid artery [7]: 0.7 ± 0.3 mm | RCCA (far-wall): Maximal IMT of right common carotid artery [7]: 1.4 ± 0.3 mm | RCCA (near-wall): Maximal IMT of right common carotid artery [7]: 1.2 ± 0.5 mm | RICA (far-wall): Maximal IMT of right internal carotid artery [7]: 0.6 ± 0.2 mm | RICA (near-wall): Maximal IMT of right internal carotid artery [7]: 0.8 ± 0.3 mm | Modified Rankin Scale Score (mRS) [8]: 1.3 ± 0.5 | National Institute of Health Stroke Scale [8]: 1.4 ± 0.6 | Modified Rankin Scale Score (mRS) [9]: 1.3 ± 0.4 | National Institute of Health Stroke Scale [9]: 1.1 ± 0.3 | LCCA (far-wall): Maximal IMT of left common carotid artery [9]: 1.1 ± 0.7 mm | LCCA (near-wall): Maximal IMT of left common carotid artery [9]: 0.8 ± 0.5 mm | LICA (far-wall): Maximal IMT of left internal carotid artery [9]: 0.5 ± 0.3 mm | LICA (near-wall): Maximal IMT of left internal carotid artery [9]: 0.6 ± 0.3 mm | RCCA (far-wall): Maximal IMT of right common carotid artery [9]: 1.0 ± 0.5 mm | RCCA (near-wall): Maximal IMT of right common carotid artery [9]: 0.9 ± 0.4 mm | RICA (far-wall): Maximal IMT of right internal carotid artery [9]: 0.5 ± 0.3 mm | RICA (near-wall): Maximal IMT of right internal carotid artery [9]: 0.6 ± 0.5 mm | Modified Rankin Scale Score (mRS) [10]: 3.6 ± 0.5 | National Institute of Health Stroke Scale [10]: 6.1 ± 2.3 | Mean and median blood pressures [11]: remained unchanged | upper GI tract ulcer complication (bleeding episode, perforation, or gastric outlet obstruction) [11]: No notable | skin irritation, total incidences (mild, all three doses): 6 | improvement of atherosclerosis (neck arteries by ultrasonography, spray vs placebo): can reverse atherosclerosis | functional recovery post strokes (results of BI, words) (spray vs placebo): can improve the functional recovery post strokes | functional recovery post strokes (results of NIHSS, words) (spray vs placebo): can improve the functional recovery post strokes | functional recovery post strokes (results of mRS, words) (spray vs placebo): can improve the functional recovery post strokes | Gastrointestinal disorders, incidences in the study (very mild, none appeared to be drug related, all three doses): 15
